Reference: patent US20240124460A1, “METHODS AND COMPOSITIONS FOR TARGETED PROTEIN DEGRADATION” (Ranok Therapeutics (Hangzhou) Co. Ltd., priority 2020, published 2024)

System: MV-4-11 human acute myeloid leukemia
Assay: MV-4-11 CCK-8 proliferation assay
Assay type: cell-based
Details: Homo sapiens, MV4-11; MV-4-11 cells, 72 hr
Procedure: The following cancer cell lines were employed: A549 human lung carcinoma (ATCC, #CCL-185); BT-474 human breast carcinoma (ATCC, #HTB-20); MDA-MB-231 human breast adenocarcinoma (ATCC, #CRM−HTB-26); MDA-MB-468 human breast adenocarcinoma (ATCC, #HTB-132); MV-4-11 human acute myeloid leukemia (ATCC, #CRL-9591); and U-87 MG human glioblastoma (ATCC, #HTB-14). Cell lines were cultured essentially according to ATCC recommendations.
3-fold serial dilutions of each test compound were prepared ranging from 20 μM to 1.02 nM.
% Inhibition=100−(D−B)/(S−B)*100%. • S: Absorbance of cells treated with DMSO • D: Absorbance of compound-treated cells • B: Absorbance of medium with DMSO without cells

Row | Compound | EC50 [nM]
1 | CCOc1cc(N2CCC(C(=O)NCCCOc3ccc(-c4ccc(NC(=O)c5ccc(OC)c(-c6cccc(OC)c6)c5)cc4)c(OCCCN(C)C)c3)CC2)ccc1Nc1ncc2c(n1)N(S(C)(=O)=O)c1ccccc1C(=O)N2C [Compound 157, N-(3-((4′-(3′,6-dimethoxy-[1,1′-biphenyl]-3-carboxamido)-2-(3-(dimethylamino)propoxy)-[1,1′-biphenyl]-4-yl)oxy)propyl)-1-(3-ethoxy-4-((5-methyl-11-(methylsulfonyl)-6-oxo-6,11-dihydro-5H-benzo[e]pyrimido[5,4-b][1,4]diazepin-2-yl)amino)phenyl)piperidine-4-carboxamide] | > 1000
2 | CCOc1cc(N2CCC(C(=O)N3CCC(CN4CCC(Oc5ccc(-c6ccc(NC(=O)c7ccc(OC)c(-c8cccc(OC)c8)c7)cc6)c(OCCCN(C)C)c5)CC4)CC3)CC2)ccc1Nc1ncc2c(n1)N(S(C)(=O)=O)c1ccccc1C(=O)N2C [Compound 155, N-(2′-(3-(dimethylamino)propoxy)-4′-((1-((1-(1-(3-ethoxy-4-((5-methyl-11-(methylsulfonyl)-6-oxo-6,11-dihydro-5H-benzo[e]pyrimido[5,4-b][1,4]diazepin-2-yl)amino)phenyl)piperidine-4-carbonyl)piperidin-4-yl)methyl)piperidin-4-yl)oxy)-[1,1′-biphenyl]-4-yl)-3′,6-dimethoxy-[1,1′-biphenyl]-3-carboxamide] | > 1000
3 | CCOc1cc(N2CCC(C(=O)N3CCC(CN4CCC(Oc5ccc(-c6ccc(NC(=O)c7ccc(OC)c(-c8cccc(OC)c8)c7)cc6)c(OCCCN(C)C)c5)CC4)CC3)CC2)ccc1Nc1ncc2c(n1)N(C)c1ccccc1C(=O)N2C [Compound 153, N-(4′-((1-((1-(1-(4-((5,11-dimethyl-6-oxo-6,11-dihydro-5H-benzo[e]pyrimido[5,4-b][1,4]diazepin-2-yl)amino)-3-ethoxyphenyl)piperidine-4-carbonyl)piperidin-4-yl)methyl)piperidin-4-yl)oxy)-2′-(3-(dimethylamino)propoxy)-[1,1′-biphenyl]-4-yl)-3′,6-dimethoxy-[1,1′-biphenyl]-3-carboxamide] | > 1000
4 | CCOc1cc(N2CCC(C(=O)N3CCC(CN4CCC(Oc5ccc(-c6ccc(NC(=O)c7ccc(OC)c(-c8cccc(OC)c8)c7)cc6)cc5)CC4)CC3)CC2)ccc1Nc1ncc2c(n1)N(C)c1ccccc1C(=O)N2C [Compound 154, N-(4′-((1-((1-(1-(4-((5,11-dimethyl-6-oxo-6,11-dihydro-5H-benzo[e]pyrimido[5,4-b][1,4]diazepin-2-yl)amino)-3-ethoxyphenyl)piperidine-4-carbonyl)piperidin-4-yl)methyl)piperidin-4-yl)oxy)-[1,1′-biphenyl]-4-yl)-3′,6-dimethoxy-[1,1′-biphenyl]-3-carboxamide] | > 1000
5 | CCOc1cc(N2CCC(C(=O)N3CCC(CN4CCC(Oc5ccc(-c6ccc(NC(=O)c7ccc(OC)c(-c8cccc(OC)c8)c7)cc6)cc5)CC4)CC3)CC2)ccc1Nc1ncc2c(n1)N(S(C)(=O)=O)c1ccccc1C(=O)N2C [Compound 156, N-(4′-((1-((1-(1-(3-ethoxy-4-((5-methyl-11-(methylsulfonyl)-6-oxo-6,11-dihydro-5H-benzo[e]pyrimido[5,4-b][1,4]diazepin-2-yl)amino)phenyl)piperidine-4-carbonyl)piperidin-4-yl)methyl)piperidin-4-yl)oxy)-[1,1′-biphenyl]-4-yl)-3′,6-dimethoxy-[1,1′-biphenyl]-3-carboxamide] | > 1000
